According to publication PMC12361874, “Common Food Additives Inhibit Carbonic Anhydrase Activity” (Journal of Biochemical and Molecular Toxicology, 2025):
Values joined by “and” are separate entries in the source; they are usually repeats but may differ in a detail not shown here. Equal entries are not always repeated. Where two headings read alike, the source gives them in different places. Where a SMILES comes first, the peptide text is derived from it.

Tests used:
[1] = biological target: T1, bovine carbonic anhydrase (bCA) (Bos taurus, UniProt P00921); assay: Inhibition of esterase activity (p-nitrophenyl acetate) of purified bCA; type: biochemical; details: for IC50 / IC50 bCA: esterase activity method, saturated substrate concentration
T1 construct: from tissue; host or cells: bovine blood hemolysate (erythrocytes are inferred)
T1 sequence (P00921 whole entry): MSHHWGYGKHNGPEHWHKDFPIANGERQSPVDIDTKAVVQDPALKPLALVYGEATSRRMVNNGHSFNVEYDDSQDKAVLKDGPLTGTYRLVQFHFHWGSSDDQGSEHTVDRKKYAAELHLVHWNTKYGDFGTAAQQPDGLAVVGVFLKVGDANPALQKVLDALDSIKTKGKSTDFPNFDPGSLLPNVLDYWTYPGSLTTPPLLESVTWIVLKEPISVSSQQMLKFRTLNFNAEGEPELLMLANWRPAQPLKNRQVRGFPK
Method: (§1) The human erythrocyte carbonic anhydrase isozymes hCAI and hCAII were eluted with 50 mM Na2HPO4 ‐ 1 M NaCl, pH: 6.3, and 0.1 M CH3COONa ‐ 0.5 M NaClO4, pH: 5.6, respectively (flow rate: 20 mL/h, fraction volume: 5 mL). The bovine enzyme was eluted with 0.1 M CH3COONa ‐ 0.5 M NaClO4 (pH: 5.6) buffer system. The protein elution by affinity column chromatography was monitored by absorbance measurement at 280 nm.
(§2) Carbonic anhydrase activity was also assayed by following esterase activity according to the method defined by Verpoorte et al. with slight modification. The enzyme hydrolyzes the substrate, p‐nitrophenyl acetate, to p‐nitrophenol or p‐nitrophenolate. The change in absorbance was measured spectrophotometrically at room temperature for a period of 3 min. The reaction mixture contained 0.5 mL of 0.05 M Tris–SO4 buffer (pH: 7.4), 0.75 mL of p‐NPA (3 mM), 0.1 mL of distilled water, and 0.15 mL of the enzyme solution (final volume 1.5 mL). […] All measurements were performed as triplicates. The method was used to determine the inhibitory activities of the food additives studied.
(§3) To determine the effect of all samples on bCA, hCAI, and hCAII isoenzymes esterase activity at saturated substrate concentration, activity (%) ‐ inhibitor concentration [I] graphs were plotted.

[2] = set-up: method as in Joint FAO/WHO Expert Committee on Food Additives; details: NL: not limited; ref Joint FAO/WHO Expert Committee on Food Additives; cited from earlier work
[3] = biological target: T2, hCAII isoenzyme purified from human erythrocytes (Homo sapiens, UniProt P00918); assay: Inhibition of esterase activity (p-nitrophenyl acetate) of purified hCAII; type: biochemical; details: esterase activity method, saturated substrate concentration
T2 construct: […]; from tissue; host or cells: human erythrocytes
Method: as §1, §2, §3

[4] = biological target: T3, hCAI isoenzyme purified from human erythrocytes (Homo sapiens, UniProt P00915); assay: Inhibition of esterase activity (p-nitrophenyl acetate) of purified hCAI; IC50, Ki, inhibition type; type: biochemical
T3 construct: hCAI isoenzyme purified from human erythrocytes; from tissue; host or cells: human erythrocytes
T3 sequence (P00915 whole entry): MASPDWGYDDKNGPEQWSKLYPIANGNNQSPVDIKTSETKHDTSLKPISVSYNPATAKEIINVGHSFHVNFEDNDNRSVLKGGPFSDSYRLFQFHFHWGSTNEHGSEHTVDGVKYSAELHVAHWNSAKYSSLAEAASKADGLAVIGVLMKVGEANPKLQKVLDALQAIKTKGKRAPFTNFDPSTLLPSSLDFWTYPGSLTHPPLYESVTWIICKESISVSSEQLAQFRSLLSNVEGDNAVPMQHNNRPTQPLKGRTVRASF
Method: as §1, §2, §3
Lineweaver–Burk lines were drawn for each inhibitor concentration. In the graph equation, Ki values were calculated by using Vmax=V^I max(1 + [I]/Ki) formula for semi‐competitive and Noncompetitive inhibition.

[5] = tested on: glandular stomach, colon and lungs of mice; set-up: method as in PMID 20686341; details: cited from earlier work
hCAI [6] = tested on: hCAI; set-up: method as in PMID 27451209; details: in vitro; cited from earlier work
hCAII [7] = details: cited from earlier work
hCAI [8] = details: read-out: IC50(hCAI); cited from earlier work
hCAII [9] = details: read-out: IC50(hCAII); cited from earlier work
[10] = esterase activity method, saturated substrate concentration, read-out: IC50 hCAI

Row | IC50 [3] | IC50 [4, 10] [µM] | SMILES | IC50 [1] | ADI (acceptable daily intake) [2] [mg/kg] | further results
1 | 396.74 ± 0.03 µM | 316.98 ± 0.02 | CCN(CC)c1ccc(C(=C2C=CC(=[N+](CC)CC)C=C2)c2cc(O)c(S(=O)(=O)[O-])cc2S(=O)(=O)[O-])cc1.CCN(CC)c1ccc(C(=C2C=CC(=[N+](CC)CC)C=C2)c2cc(O)c(S(=O)(=O)[O-])cc2S(=O)(=O)[O-])cc1.[Ca+2] [Patent Blue V] | 267.46 ± 0.09 µM | 5 | –
2 | 104.29 ± 0.09 µM | 462.89 ± 0.1 | Cc1cc(C(C)(C)C)c(O)c(C(C)(C)C)c1 [Butylated Hydroxytoluene (BHT), Butylated hydroxytoluene (BHT)] | 512.85 ± 0.05 µM | 0.3 | –
3 | 617.09 ± 0.01 µM | 678.27 ± 0.03 | O=S(=O)([O-])c1cc(S(=O)(=O)[O-])c2c(N=Nc3ccc(S(=O)(=O)[O-])c4ccccc34)c(O)ccc2c1.[Na+].[Na+].[Na+] [Ponceau 4R, Ponceau 4 R] | 239.84 ± 0.04 µM | 0.7 | –
4 | 242.03 ± 0.03 µM | 1018.6 ± 0.04 | O=C1/C(=C2\Nc3ccc(S(=O)(=O)[O-])cc3C2=O)Nc2ccc(S(=O)(=O)[O-])cc21.[Na+].[Na+] [Indigo Carmine] | 141.59 ± 0.07 µM | 5 | –
5 | 581.07 ± 0.03 µM | 684 | Cc1c(C(=O)O)c(O)cc2c1C(=O)c1c(O)c([C@@H]3O[C@H](CO)[C@@H](O)[C@H](O)[C@H]3O)c(O)c(O)c1C2=O [Carminic Acid, Carminic acid] | 586.92 ± 0.01 µM | 2.5 | –
6 | 621.83 ± 0.05 µM | 652.25 ± 0.05 | O=C([O-])C1=NN(c2ccc(S(=O)(=O)[O-])cc2)C(=O)C1N=Nc1ccc(S(=O)(=O)[O-])cc1.[Na+].[Na+].[Na+] (centres unmarked) [Tartrazine] | 659.67 ± 0.07 µM | 7.5 | –
7 | 1241.9 ± 0.07 µM | 1799.4 ± 0.03 | O=C(O)CC(O)(CC(=O)O)C(=O)O [Citric Acid] | 616.9 ± 0.1 µM | – | –
8 | 502.45 ± 0.03 µM | 91.14 ± 0.09 | CC(=O)Nc1ccc(S(=O)(=O)[O-])c2cc(S(=O)(=O)[O-])c(N=Nc3ccc(N=Nc4ccc(S(=O)(=O)[O-])cc4)c4ccc(S(=O)(=O)[O-])cc34)c(O)c12.[Na+].[Na+].[Na+].[Na+] [Brilliant Black BN] | 153.32 ± 0.04 µM | 1 | –
9 | 504.04 ± 0.02 µM | 781.65 ± 0.06 | COc1cc(S(=O)(=O)[O-])c(C)cc1N=Nc1c(O)ccc2cc(S(=O)(=O)[O-])ccc12.[Na+].[Na+] [Allura Red AC] | 762.12 ± 0.12 µM | 7 | DNA damage in in vivo comet assay [5]: DNA damage; IC50 (hCAI [6]): 565 µM
10 | 2160.1 ± 0.07 µM | 1834.1 ± 0.1 | O=C1O[C@H]([C@@H](O)CO)C(O)=C1O [Ascorbic Acid, Ascorbic acid] | 993.67 ± 0.03 µM | – | –
11 | 5 µM and 5.22 µM | 19.37 ± 0.04 | O=C([O-])c1ccccc1-c1c2cc(I)c(=O)c(I)c-2oc2c(I)c([O-])c(I)cc12.[Na+].[Na+] [Erythrosine B] | 11 µM and 10.8 µM | 0.1 | Type of inhibition ([4]; Lineweaver–Burk): Noncompetitive; IC50 ([4]; Table 3, read-out: IC50 (hCAI esterase activity)): 19 µM; Ki ([4]; [I] 0.015 mM, Lineweaver–Burk, read-out: Ki values): 2.9 µM; Ki ([4]; [I] 0.019 mM, Lineweaver–Burk, read-out: Ki values): 1.7 µM; Ki ([4]; [I] 0.023 mM, Lineweaver–Burk, read-out: Ki values): 3.9 µM; Ki ([4]; three inhibitor concentrations, five substrate concentrations (0.15–0.75 mM), read-out: Average Ki): 2.8 µM
12 | 603.11 ± 0.11 µM | 496.04 ± 0.04 | O=S(=O)([O-])c1ccc2c(N=Nc3ccc(S(=O)(=O)[O-])c4ccccc34)c(O)c(S(=O)(=O)[O-])cc2c1.[Na+].[Na+].[Na+] [Amaranth] | 296.06 ± 0.06 µM | 0.5 | –
13 | – | 2049.1 ± 0.1 | O=C1NS(=O)(=O)c2ccccc21 [Saccharin] | – | 5 | inhibition against hCAII (hCAII [7]): low micromolar inhibition
14 | 488.63 ± 0.07 µM | 350.05 ± 0.03 | O=S(=O)([O-])c1ccc(N=Nc2c(O)ccc3cc(S(=O)(=O)[O-])ccc23)cc1.[Na+].[Na+] [Sunset Yellow FCF] | 680.82 ± 0.05 µM | 4 | –
15 | – | – | CC1=CC(=O)NS(=O)(=O)O1 [Acesulfame K] | 2350.5 ± 0.1 µM | 15 | inhibition at 2000 µg/mL ([1]; at 2 mg/mL concentration): 13%
16 | 3475.1 ± 0.1 µM | 4566.2 ± 0.06 | C/C=C/C=C/C(=O)O [Sorbic Acid, Sorbic acid] | 1801.4 ± 0.04 µM | 25 | –
17 | – | – | COc1cc(/C=C/C(=O)CC(=O)/C=C/c2ccc(O)c(OC)c2)ccc1O [Curcumin] | – | – | IC50 (hCAI [8]): 5.63 µM; IC50 (hCAII [9]): 4.81 µM
18 | 2935.8 ± 0.02 µM | 2816.9 ± 0.03 | COC(=O)[C@H](Cc1ccccc1)NC(=O)[C@@H](N)CC(=O)O [Aspartame] (HELM PEPTIDE1{D.F.[CO[*:1]]}$$$$V2.0) | – | 40 | IC50 bCA [1]: inactive; IC50 bCA ([1]; listed as aspartame): no effect

Row | SMILES | IC50 [3] | IC50 [4, 10] [µM] | IC50 [1] | ADI (acceptable daily intake) [2] [mg/kg] | further results
19 | CCN(Cc1cccc(S(=O)(=O)[O-])c1)c1ccc(C(=C2C=CC(=[N+](CC)Cc3cccc(S(=O)(=O)[O-])c3)C=C2)c2ccccc2S(=O)(=O)[O-])cc1.[Na+].[Na+] [Brilliant Blue FCF] | 364.3 ± 0.09 µM | 208.04 ± 0.03 | 136.26 ± 0.04 µM | 6 | –
20 | O=C(O)c1ccccc1 [Benzoic Acid, Benzoic acid] | 2988.8 ± 0.06 µM | 2784 ± 0.06 | 1850.7 ± 0.05 µM | 5 | –
